Assays:
[1] = Microscopic morphology and particle size; format: physicochemical; settings: optical microscope, 40× objective lens; hydrochloride
Description: Samples of the crystal form A and the crystal form B of ethoximod were subjected to microscopic morphological researches. The morphology and particle sizes of the crystal form A and the crystal form B were observed under a 40× objective lens of an optical microscope. The crystal form A is irregular and plate-shaped with a raw material particle size of below 35 µm and a long/short diameter ratio of 1 to 2. The crystal form B aggregates and becomes spherical with a raw material particle size of below 20 µm.

[2] = Dynamic solubility at 37 °C (HPLC; residual solid by XRPD); format: physicochemical; settings: for solubility at 1 h / solubility at 2 h / solubility at 4 h / solubility at 24 h: thermodynamic from solid
Procedure: Samples of the crystal form A and the crystal form B of ethoximod were taken and prepared into saturated solutions at 37 °C in Fasted State Simulated Intestinal Fluid (FaSSIF, pH = 8.0), Fed State Simulated Intestinal Fluid (FeSSIF, pH = 5.0), Simulated Gastric Fluid (SGF, pH = 1.0), a hydrochloric acid aqueous solution (pH = 1.0), an acetic acid-sodium acetate buffer system (pH = 4.0), a phosphate buffer system (pH = 6.8) and water. After 1 h/2 h/4 h/24 h, filtration was performed to obtain solutions, and actual concentrations of the samples in the solutions were measured through high-performance liquid chromatography (HPLC) (diluting the filtrates as needed). Crystal forms of the solids before and after the experiment were characterized through XRPD to check whether phase transition had occurred. Table 4 Comparison of solubility of crystal form A and crystal form B

[3] = FaSSIF (pH = 8.0), 37 °C, 1 h, hydrochloride
[4] = FaSSIF (pH = 8.0), 37 °C, 2 h, hydrochloride
[5] = FaSSIF (pH = 8.0), 37 °C, 4 h, hydrochloride
[6] = FaSSIF (pH = 8.0), 37 °C, 24 h, hydrochloride
[7] = FeSSIF (pH = 5.0), 37 °C, 4 h, hydrochloride
[8] = phosphate buffer pH = 6.8, 37 °C, 1 h
[9] = phosphate buffer pH = 6.8, 37 °C, 2 h
[10] = phosphate buffer pH = 6.8, 37 °C, 4 h
[11] = phosphate buffer pH = 6.8, 37 °C, 24 h
[12] = phosphate buffer pH = 6.8, 37 °C, 24 h, hydrochloride

In the case of `CCc1nc(-c2ccc(-c3ccc(CCC(N)(CO)CO)cc3)cc2)co1.Cl` [crystal form A, 2-amino-2-{2-(4'-(2-ethyloxazol-4-yl)-[1,1'-biphenyl]-4-yl)ethyl}-1,3-propylene glycol hydrochloride], the “raw material particle size” value [1] is reported as “below 35 µm”, the “crystal form of the solid” value [2, 3] is reported as “A+free alkali” and the “crystal form of the solid” value [2, 4] is reported as “A+free alkali”. The “crystal form of the solid” value [2, 5] was “A+free alkali”, the “crystal form of the solid” value [2, 6] was “A+free alkali” and the solubility at 1 h ([2]; Fasted State Simulated Intestinal Fluid (FaSSIF), 37 °C, pH 8, fassif, FaSSIF (pH = 8.0), 1 h) was 10 µg/mL. For the same compound, the solubility at 2 h ([2]; Fasted State Simulated Intestinal Fluid (FaSSIF), 37 °C, pH 8, fassif, FaSSIF (pH = 8.0), 2 h) was 9 µg/mL, the solubility at 4 h ([2]; Fasted State Simulated Intestinal Fluid (FaSSIF), 37 °C, pH 8, fassif, FaSSIF (pH = 8.0), 4 h) was 11 µg/mL and the solubility at 24 h ([2]; Fasted State Simulated Intestinal Fluid (FaSSIF), 37 °C, pH 8, fassif, FaSSIF (pH = 8.0), 24 h) was 26 µg/mL. It also gave a solubility [2, 7] of 2.52 mg/mL, a solubility at 1 h ([2]; Fed State Simulated Intestinal Fluid (FeSSIF), 37 °C, pH 5, fessif, FeSSIF (pH = 5.0), 1 h) of 1540 µg/mL and a solubility at 2 h ([2]; Fed State Simulated Intestinal Fluid (FeSSIF), 37 °C, pH 5, fessif, FeSSIF (pH = 5.0), 2 h) of 2000 µg/mL. For the same compound, the solubility at 24 h ([2]; Fed State Simulated Intestinal Fluid (FeSSIF), 37 °C, pH 5, fessif, FeSSIF (pH = 5.0), 24 h) was 2670 µg/mL, the solubility at 1 h ([2]; Simulated Gastric Fluid (SGF), 37 °C, pH 1, simulated gastric fluid, SGF (pH = 1.0), 1 h) was 240 µg/mL and the solubility at 2 h ([2]; Simulated Gastric Fluid (SGF), 37 °C, pH 1, simulated gastric fluid, SGF (pH = 1.0), 2 h) was 260 µg/mL. The solubility at 4 h ([2]; Simulated Gastric Fluid (SGF), 37 °C, pH 1, simulated gastric fluid, SGF (pH = 1.0), 4 h) was 260 µg/mL, the solubility at 24 h ([2]; Simulated Gastric Fluid (SGF), 37 °C, pH 1, simulated gastric fluid, SGF (pH = 1.0), 24 h) was 270 µg/mL and the solubility at 1 h ([2]; acetic acid-sodium acetate buffer, 37 °C, pH 4, aqueous buffer, acetic acid-sodium acetate buffer pH = 4.0, 37 °C, 1 h) was 2490 µg/mL. For the same compound, the solubility at 2 h ([2]; acetic acid-sodium acetate buffer, 37 °C, pH 4, aqueous buffer, acetic acid-sodium acetate buffer pH = 4.0, 37 °C, 2 h) was 2480 µg/mL, the solubility at 4 h ([2]; acetic acid-sodium acetate buffer, 37 °C, pH 4, aqueous buffer, acetic acid-sodium acetate buffer pH = 4.0, 37 °C, 4 h) was 2740 µg/mL and the solubility at 24 h ([2]; acetic acid-sodium acetate buffer, 37 °C, pH 4, aqueous buffer, acetic acid-sodium acetate buffer pH = 4.0, 37 °C, 24 h) was 2590 µg/mL. The solubility at 1 h ([2]; hydrochloric acid aqueous solution, 37 °C, pH 1, simulated gastric fluid, hydrochloric acid aqueous solution pH = 1.0, 37 °C, 1 h) was 280 µg/mL, the solubility at 2 h ([2]; hydrochloric acid aqueous solution, 37 °C, pH 1, simulated gastric fluid, hydrochloric acid aqueous solution pH = 1.0, 37 °C, 2 h) was 280 µg/mL and the solubility at 4 h ([2]; hydrochloric acid aqueous solution, 37 °C, pH 1, simulated gastric fluid, hydrochloric acid aqueous solution pH = 1.0, 37 °C, 4 h) was 290 µg/mL. For the same compound, the solubility at 24 h ([2]; hydrochloric acid aqueous solution, 37 °C, pH 1, simulated gastric fluid, hydrochloric acid aqueous solution pH = 1.0, 37 °C, 24 h) was 380 µg/mL, the “crystal form of the solid” value [2, 8] was “free alkali” and the solubility ([2]; phosphate buffer pH = 6.8, 37 °C, 1 h, hydrochloride) was 0.0002 mg/mL. For the same compound, the “crystal form of the solid” value [2, 9] was “free alkali”, the “crystal form of the solid” value [2, 10] was “free alkali” and the “crystal form of the solid” value [2, 11] was “free alkali”. For the same compound, the solubility [2, 12] was 0.00076 mg/mL, the solubility at 2 h ([2]; phosphate buffer, 37 °C, pH 6.8, aqueous buffer, phosphate buffer pH = 6.8, 37 °C, 2 h) was 0.07 µg/mL and the solubility at 4 h ([2]; phosphate buffer, 37 °C, pH 6.8, aqueous buffer, phosphate buffer pH = 6.8, 37 °C, 4 h) was 0.14 µg/mL. For the same compound, the solubility at 1 h ([2]; water, 37 °C, 1 h) was 2080 µg/mL, the solubility at 2 h ([2]; water, 37 °C, 2 h) was 2150 µg/mL and the solubility at 4 h ([2]; water, 37 °C, 4 h) was 2140 µg/mL. The solubility at 24 h ([2]; water, 37 °C, 24 h) was 2260 µg/mL.

For `CCc1nc(-c2ccc(-c3ccc(CCC(N)(CO)CO)cc3)cc2)co1.Cl` [crystal form B, 2-amino-2-{2-(4'-(2-ethyloxazol-4-yl)-[1,1'-biphenyl]-4-yl)ethyl}-1,3-propylene glycol hydrochloride], the “raw material particle size” value [1] was “below 20 µm”, the “crystal form of the solid” value [2, 3] was “free alkali” and the solubility [2, 3] was 0.015 mg/mL. The “crystal form of the solid” value [2, 4] was “free alkali”, the solubility [2, 4] was 0.01 mg/mL and the “crystal form of the solid” value [2, 5] was “free alkali”. For the same compound, the solubility [2, 5] was 0.008 mg/mL, the “crystal form of the solid” value [2, 6] was “free alkali” and the solubility [2, 6] was 0.021 mg/mL. The solubility ([2]; FeSSIF (pH = 5.0), 37 °C, 1 h, hydrochloride) was 1.48 mg/mL, the solubility ([2]; FeSSIF (pH = 5.0), 37 °C, 2 h, hydrochloride) was 1.63 mg/mL and the solubility [2, 7] was 1.21 mg/mL. It also gave a solubility ([2]; FeSSIF (pH = 5.0), 37 °C, 24 h, hydrochloride) of 1.67 mg/mL, a solubility ([2]; SGF (pH = 1.0), 37 °C, 1 h, hydrochloride) of 0.29 mg/mL and a solubility ([2]; SGF (pH = 1.0), 37 °C, 2 h, hydrochloride) of 0.28 mg/mL. It also gave a solubility ([2]; SGF (pH = 1.0), 37 °C, 4 h, hydrochloride) of 0.32 mg/mL, a solubility ([2]; SGF (pH = 1.0), 37 °C, 24 h, hydrochloride) of 0.36 mg/mL and a solubility ([2]; acetic acid-sodium acetate buffer pH = 4.0, 37 °C, 1 h, hydrochloride) of 1.45 mg/mL. It also gave a solubility ([2]; acetic acid-sodium acetate buffer pH = 4.0, 37 °C, 2 h, hydrochloride) of 1.78 mg/mL, a solubility ([2]; acetic acid-sodium acetate buffer pH = 4.0, 37 °C, 4 h, hydrochloride) of 1.93 mg/mL and a solubility ([2]; acetic acid-sodium acetate buffer pH = 4.0, 37 °C, 24 h, hydrochloride) of 2.61 mg/mL. For the same compound, the solubility ([2]; hydrochloric acid aqueous solution pH = 1.0, 37 °C, 1 h, hydrochloride) was 0.30 mg/mL, the solubility ([2]; hydrochloric acid aqueous solution pH = 1.0, 37 °C, 2 h, hydrochloride) was 0.41 mg/mL and the solubility ([2]; hydrochloric acid aqueous solution pH = 1.0, 37 °C, 4 h, hydrochloride) was 0.32 mg/mL. For the same compound, the solubility ([2]; hydrochloric acid aqueous solution pH = 1.0, 37 °C, 24 h, hydrochloride) was 0.36 mg/mL, the “crystal form of the solid” value [2, 8] was “free alkali” and the “crystal form of the solid” value [2, 9] was “free alkali”. For the same compound, the solubility ([2]; phosphate buffer pH = 6.8, 37 °C, 2 h, hydrochloride) was “lower than limit of detection”, the “crystal form of the solid” value [2, 10] was “free alkali” and the solubility ([2]; phosphate buffer pH = 6.8, 37 °C, 4 h, hydrochloride) was “lower than limit of detection”. For the same compound, the “crystal form of the solid” value [2, 11] was “free alkali”, the solubility [2, 12] was 0.0019 mg/mL and the solubility at 1 h ([2]; phosphate buffer, 37 °C, pH 6.8, aqueous buffer, phosphate buffer pH = 6.8, 37 °C, 1 h) was 0.1 µg/mL. It also gave a solubility ([2]; water, 37 °C, 1 h, hydrochloride) of 1.69 mg/mL, a solubility ([2]; water, 37 °C, 2 h, hydrochloride) of 1.65 mg/mL and a solubility ([2]; water, 37 °C, 4 h, hydrochloride) of 2.50 mg/mL. It also gave a solubility ([2]; water, 37 °C, 24 h, hydrochloride) of 2.16 mg/mL.
